The values below come from patent publication US8637508B2, “Heterocyclic derivatives and their use in the treatment of neurological disorders” (Novartis AG, priority 2011, dated 2014).

Structures are written as SMILES. Where a name gives a salt, the structure may show the parent alone. Read-outs that look alike come from different tables or passages of the source.

The target in one experiment is human BACE-1 (Homo sapiens (Human), UniProt P56817). Put plainly: Test 1: Inhibition of human BACE-1.
A further experiment has as its target human BACE-2 (Homo sapiens (Human), UniProt Q9Y5Z0). Put plainly: Test 2: Inhibition of human BACE-2. In kind it is biochemical. From the text: Test 2: Inhibition of Human BACE-2
Setting [1] is: read-out: BACE-1 IC50, mean IC50, recombinant BACE-1, acetate buffer pH 4.5, fluorescence-quenched peptide substrate.
[2] abbreviates: mean IC50, recombinant BACE-2, acetate buffer pH 4.5, fluorescence-quenched peptide substrate, read-out: BACE-2 IC50.

human BACE-1, sequence (P56817 46-457): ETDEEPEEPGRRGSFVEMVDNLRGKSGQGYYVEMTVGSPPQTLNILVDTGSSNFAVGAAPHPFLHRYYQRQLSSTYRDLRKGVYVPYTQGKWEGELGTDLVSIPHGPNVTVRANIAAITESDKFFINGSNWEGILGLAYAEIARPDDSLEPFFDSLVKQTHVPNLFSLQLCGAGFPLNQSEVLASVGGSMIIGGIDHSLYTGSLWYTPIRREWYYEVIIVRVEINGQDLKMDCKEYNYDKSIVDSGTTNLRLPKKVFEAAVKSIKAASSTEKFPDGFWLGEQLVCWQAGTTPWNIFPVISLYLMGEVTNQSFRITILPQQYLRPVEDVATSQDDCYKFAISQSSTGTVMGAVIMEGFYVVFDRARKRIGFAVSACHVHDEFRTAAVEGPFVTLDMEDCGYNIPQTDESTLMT
human BACE-2, sequence (Q9Y5Z0 63-473): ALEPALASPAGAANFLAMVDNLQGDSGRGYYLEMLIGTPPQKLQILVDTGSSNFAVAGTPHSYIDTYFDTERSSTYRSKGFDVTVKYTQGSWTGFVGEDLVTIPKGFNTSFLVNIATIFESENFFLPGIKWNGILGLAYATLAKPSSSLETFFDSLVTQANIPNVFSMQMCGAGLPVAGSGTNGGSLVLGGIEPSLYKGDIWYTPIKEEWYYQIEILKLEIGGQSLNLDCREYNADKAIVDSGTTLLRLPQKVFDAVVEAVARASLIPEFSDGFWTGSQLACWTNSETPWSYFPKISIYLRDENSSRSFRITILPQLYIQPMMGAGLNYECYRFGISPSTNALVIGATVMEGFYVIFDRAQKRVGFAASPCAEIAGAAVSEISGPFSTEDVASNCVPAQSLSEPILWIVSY

On to `CC1(c2cccc(NC(=O)c3ccc(Br)cn3)n2)COCC(N)=N1` (racemic) [Example 2, 5-Bromo-pyridine-2-carboxylic acid [6-(5-amino-3-methyl-3,6-dihydro-2H-[1,4]-oxazin-3-yl)-pyridin-2-yl]-amide], for which the IC50 on human BACE-1 (setting [1]) came to 790 nM; on human BACE-2 (setting [2]) it was 360 nM.

As for `C[C@@]1(c2cccc(NC(=O)c3ccc(Br)cn3)n2)COCC(N)=N1` [Example 1, 5-Bromo-pyridine-2-carboxylic acid [6-((R)-5-amino-3-methyl-3,6-dihydro-2H-[1,4]-oxazin-3-yl)-pyridin-2-yl]-amide], the IC50 on human BACE-1 (setting [1]) turned out to be 390 nM; at human BACE-2 (setting [2]), 260 nM.

With `[2H]c1nc(C(=O)Nc2cccc(C3(CF)COCC(N)=N3)n2)c(C([2H])([2H])[2H])c([2H])c1Cl` (centres unmarked) [Example 6, 5-{6-[(4,6-Dideutero-5-chloro-3-trideuteromethyl-pyridine-2-carbonyl)-amino]-pyridin-2-yl}-5-fluoromethyl-5,6-dihydro-2H-[1,4]oxazin-3-yl-ammonium trifluoro acetate], the IC50 was 550 nM against human BACE-1 and 240 nM against human BACE-2.

As for `NC(=S)c1ccc(C(=O)Nc2cccc(C3(CF)COCC(N)=N3)n2)nc1` (centres unmarked) [Example 7, 5-{6-[(5-Thiocarbamoyl-pyridine-2-carbonyl)-amino]-pyridin-2-yl}-5-fluoromethyl-5,6-dihydro-2H-[1,4]oxazin-3-yl-ammonium trifluoro-acetate], the IC50 at human BACE-1 (setting [1]) worked out at 2100 nM; at human BACE-2 (setting [2]) it was 8700 nM.

`Cc1cc(C#N)cnc1C(=O)Nc1cccc([C@]2(C)CO[C@@](C)(C(F)(F)F)C(N)=N2)n1` [Example 8, 5-Cyano-3-methyl-pyridine-2-carboxylic acid [6-((3R,6R)-5-amino-3,6-dimethyl-6-trifluoro-methyl-3,6-dihydro-2H-[1,4]oxazin-3-yl)-pyridin-2-yl]-amide]: the IC50 on human BACE-1 (setting [1]) worked out at 5 nM; on human BACE-2 (setting [2]), 20 nM.

As for `C[C@]1(c2cccc(NC(=O)c3ccc(C#N)cn3)n2)CO[C@@](C)(C(F)(F)F)C(N)=N1` [Example 9, 5-Cyano-pyridine-2-carboxylic acid [6-((3S,6R)-5-amino-3,6-dimethyl-6-trifluoromethyl-3,6-dihydro-2H-[1,4]oxazin-3-yl)-pyridin-2-yl]-amide hydrochloride], the IC50 on human BACE-1 (setting [1]) is 6200 nM.

Consider `C[C@@]1(c2cccc(NC(=O)c3ccc(C#N)cn3)n2)CO[C@@](C)(C(F)(F)F)C(N)=N1` [Example 10, 5-Cyano-pyridine-2-carboxylic acid [6-((3R,6R)-5-amino-3,6-dimethyl-6-trifluoromethyl-3,6-dihydro-2H-[1,4]oxazin-3-yl)-pyridin-2-yl]-amide], for which the concentration for half-maximal inhibition (IC50) on human BACE-1 (setting [1]) came out at 39 nM.

With `[2H]c1nc(C(=O)Nc2cc(C3(CF)COCC(N)=N3)ccn2)c(C([2H])([2H])[2H])c([2H])c1Cl` (centres unmarked) [Example 13, 5-{2-[(5-Chloro-4,6-dideutero-3-trideuteromethyl-pyridine-2-carbonyl)-amino]-pyridin-4-yl}-5-fluoromethyl-5,6-dihydro-2H-[1,4]oxazin-3-yl-ammonium acetate], on human BACE-2, the IC50 was 1500 nM.

For `NC1=NC(CF)(c2ccnc(NC(=O)c3ccc(Cl)cn3)c2)COC1` (centres unmarked) [Example 14, 5-{2-[(5-Chloro-pyridine-2-carbonyl)-amino]-pyridin-4-yl}-5-fluoromethyl-5,6-dihydro-2H-[1,4]oxazin-3-yl-ammonium trifluoro-acetate], the results for the IC50 on human BACE-1 (setting [1]) and on human BACE-2 (setting [2]) were 8100 nM and 4800 nM, respectively.

Turning to `Cc1cc(C(N)=S)cnc1C(=O)Nc1cc(C2(CF)COCC(N)=N2)ccn1` (centres unmarked) [Example 15, 5-Fluoromethyl-5-{2-[(3-methyl-5-thiocarbamoyl-pyridine-2-carbonyl)-amino]-pyridin-4-yl}-5,6-dihydro-2H-[1,4]oxazin-3-yl-ammonium trifluoro-acetate], the IC50 against human BACE-1 and against human BACE-2 was above 10000 nM in each case.
